What was measured:
HEPG2/C3A cells = assay: Metabolic response of C3A bioartificial liver in bioreactor to xenobiotic (1H NMR, PLS regression); assay type: cell-based, human; design: key: +: sign of the variation of its concentration (in brackets) when the amount of xenobiotic in the experiment increases; −: sign of the variation of its concentration (in brackets) when the amount of xenobiotic in the experiment increases
Text: (§1) In the preferred embodiment described, ^1H NMR spectroscopy (proton NMR, which makes it possible to detect hydrogen atoms) was used to carry out a series of tests. These tests involved two cell lines and three potentially toxic substances, with the two lines being optionally in coculture. These cells are in one case HEPG2/C3A cells, or simply C3A, human hepatocyte cells, and in the other case Madin-Darby canine kidney (MDCK) cells. […] In particular, mention may be made of the pancreas, the heart, the testicles, parts of the brain, etc.
(§2) The medium samples are, for example, prepared using 350 μl of medium, mixed with 200 μl of 0.9 g/l saline solution composed of 90% water (H2O) and 10% heavy water (D2O), for the purpose of calibration. The 550 μl of solution is then transferred to an NMR analysis tube.
(§3) NMR is acquired at a frequency of 700 MHz by using a proton probe. A ^1D NMR spectrum is recorded using presaturation of the resonance of the water according to the following sequence: Trd-P90-t1-P90-tm-P90-Taq. Trd represents a delay of 2 seconds during which the resonance of the water is selectively irradiated, P90 is a 90° pulse of radio frequency and t1 corresponds to a delay of 3 μs. The resonance of the water is irradiated a second time during the mixing time (tm=100 ms) and an acquisition time of 1.95 s. For each sample, 128 interferograms are accumulated in order to increase the signal-to-noise ratio. These interferograms are multiplied by an exponential function corresponding to a 0.3 Hz enlarging of the line. Before obtaining a Fourier transform, the width of the interferogram is doubled by adding null points at the end of the interferogram, in order not to degrade the resolution of the spectrum. The scale in the horizontal dimension corresponds to the ^1H chemical shifts. It extends over a window of 10 ppm around the resonance of water. The scale in the vertical dimension corresponds to resonance intensity which is proportional to the number of protons present for a chemical group of each molecule of the sample. The spectra are then phased and a linear correction of the baseline is carried out, before calibration on the signal of the […] anomer of glucose at 5.23 ppm. The area between 4.67 ppm and 5 ppm around the residual signal of water is suppressed for better visibility, and the spectra are exported as a multidimensional data set.
(§4) The statistical analysis consists first of an unsupervised principal components analysis in order to locate aberrant points in the multidimensional data set. The principal components analysis makes it possible to compress the 40,000 redundant NMR present in the data set in a new orthonormal reference, with each axis representing a principal component of the variance of the data set, which is thus multidimensional. A so-called supervised multivariate statistical analysis is then carried out in order to discriminate culture conditions or groups of doses and to identify the metabolic signatures specific to the toxicological effects. This supervised analysis is principally carried out using partial least squares regression, through partial least squares discriminant analysis (PLS-DA), without however being limited to it. A PLS regression, just like a linear regression, makes it possible to identify the components of the data set (explanatory variables, X) that are quantitatively correlated with the non-explanatory variable (Y), whether the culture conditions, the cell type of the bioartificial organ, the type of treatment administered or the treatment dose. Artificial neural network structures can also be programmed to carry out this multivariate analysis.
(§5) Third, the metabolic responses of the various organs to various exposures to NH3 were studied. Three amounts of NH3 were administered (0 mM, 5 mM and 10 mM) to each type of bioartificial organ.

C3A cells = assay: Metabolic response of C3A cell culture in Petri dishes to APAP (1H NMR, PLS regression); assay type: cell-based, human; design: key: +: sign of the variation of its concentration (in brackets) when the amount of xenobiotic in the experiment increases; −: sign of the variation of its concentration (in brackets) when the amount of xenobiotic in the experiment increases; details: amount of xenobiotic increases
Protocol: Fourth, the specific metabolic responses of bioartificial livers exposed to various toxins were characterized (Table 4). Several toxic substances (NH3 ([…]); DMSO (0%, 1%, 2%, 4%); APAP (0.1 mM)) were administered to bioartificial livers comprised of C3A cells. In the case of treatment with APAP, the response of the bioartificial liver was compared with that of liver cells in culture in Petri dishes. […] The result is four PLS models specific to each treatment type: NH3 on C3A bioartificial liver, DMSO on C3A bioartificial liver, APAP on C3A bioartificial liver and, finally, APAP on C3A cell culture in Petri dishes. […] This table presents for each metabolite the sign of the variation of its concentration (in brackets) when the amount of xenobiotic in the experiment increases.

C3A/MDCK coculture = details: NH3 0 mM, 5 mM and 10 mM
Text: as §1, §2, §3, §4, §5

[1] = test system: Madin-Darby canine kidney (MDCK) cells; details: Bioartificial kidney (MDCK cells); NH3 0 mM, 5 mM and 10 mM
Text: as §1, §2, §3, §4, §5

[2] = C3A bioartificial liver, amount of xenobiotic increases (Table 4)
[3] = Bioartificial liver (C3A cells), NH3 0 mM, 5 mM and 10 mM

CC(=O)Nc1ccc(O)cc1 [APAP, N-acetyl-para-aminophenol]
Variation of Acetate concentration (HEPG2/C3A cells; [2]): Acetate (+) | Variation of Isoleucine concentration (HEPG2/C3A cells; [2]): Isoleucine (−) | Variation of Pyruvate/oxaloacetate concentration (HEPG2/C3A cells; [2]): oxaloacetate (−) | Variation of Succinate concentration (HEPG2/C3A cells; [2]): Succinate (−) | Variation of Tyrosine concentration (HEPG2/C3A cells; [2]): Tyrosine (+) | Variation of Unknown metabolite concentration (HEPG2/C3A cells; [2]): Unknown (−) | Variation of Arginine concentration (C3A cells): Arginine (−) | Variation of Ethanol concentration (C3A cells): Ethanol (−) | Variation of Glutamate concentration (C3A cells): Glutamate (−) | Variation of Isoleucine concentration (C3A cells): Isoleucine (−) | Variation of Leucine concentration (C3A cells): Leucine (−) | Variation of Lysine concentration (C3A cells): Lysine (−) | Variation of Phenylalanine concentration (C3A cells): Phenylalanine (−)

C[S+](C)[O-] [DMSO, dimethyl sulfoxide]
Variation of Alpha-keto-isovalerate concentration (HEPG2/C3A cells; [2]): isovalerate (−) | Variation of Alpha-keto-methylvalerate concentration (HEPG2/C3A cells; [2]): methylvalerate (−) | Variation of Glucose concentration (HEPG2/C3A cells; [2]): Glucose (+) | Variation of Lactate concentration (HEPG2/C3A cells; [2]): Lactate (−) | Variation of Phenylalanine concentration (HEPG2/C3A cells; [2]): Phenylalanine (+) | Variation of Tyrosine concentration (HEPG2/C3A cells; [2]): Tyrosine (+)

N [NH3, ammonia]
Variation of Alanine concentration (HEPG2/C3A cells; [3]): + | Variation of Alpha-keto-isovalerate concentration (HEPG2/C3A cells; [3]): − | Variation of Alpha-keto-methylvalerate concentration (HEPG2/C3A cells; [3]): − | Variation of Isoleucine concentration (HEPG2/C3A cells; [3]): + | Variation of Leucine concentration (HEPG2/C3A cells; [3]): + | Variation of Succinate concentration (HEPG2/C3A cells; [3]): + | Variation of Valine concentration (HEPG2/C3A cells; [3]): + | Variation of Alanine concentration (HEPG2/C3A cells; [2]): Alanine (+) | Variation of Alpha-keto-isovalerate concentration (HEPG2/C3A cells; [2]): isovalerate (−) | Variation of Alpha-keto-methylvalerate concentration (HEPG2/C3A cells; [2]): methylvalerate (−) | Variation of Isoleucine concentration (HEPG2/C3A cells; [2]): Isoleucine (+) | Variation of Leucine concentration (HEPG2/C3A cells; [2]): Leucine (+) | Variation of Succinate concentration (HEPG2/C3A cells; [2]): Succinate (+) | Variation of Valine concentration (HEPG2/C3A cells; [2]): Valine (+) | Variation of Alpha-hydroxyisobutyrate concentration (C3A/MDCK coculture): + | Variation of Glutamate concentration (C3A/MDCK coculture): + | Variation of Glutamine concentration (C3A/MDCK coculture): + | Variation of Lysine concentration (C3A/MDCK coculture): + | Variation of Ornithine concentration (C3A/MDCK coculture): − | Variation of Succinate concentration (C3A/MDCK coculture): + | Variation of Valine concentration (C3A/MDCK coculture): + | Variation of Glutamine concentration [1]: − | Variation of Lysine concentration [1]: − | Variation of Oxaloacetate concentration [1]: − | Variation of Pyroglutamate concentration [1]: + | Variation of Pyruvate concentration [1]: − | Variation of Unknown metabolite concentration [1]: −

Source: patent publication US9448226B2, “Method of toxicological evaluation, method of toxicological screening and associated system” (Universite Technologie De Compiegne—UTC, priority 2010, dated 2016)
